According to US4455315A, “N-(Difluoromethoxy substituted phenyl)-dichloromaleimides used in agricultural and horticultural fungicidal methods” (Showa Denko Kabushiki Kaisha, priority 1980, dated 1984):

Key:
plant pathogens = settings: U.S. Pat. No. 2,444,536; cited from earlier work
Venturia inaequalis = assay: Apple Scab-controlling Test; assay type: in vivo; settings: 500 ppm
Elsinoe fawcetti = assay: Citrus Scab-controlling Test; settings: 250 ppm
Method: (§1) The resulting solution is sprayed, in an amount corresponding to 600 l/10a per pot, on potted young oranges (variety: Unshu) immediately after fresh leaves are unfolded. After one day, the potted young oranges are inoculated with Elsinoe fawcetti, by spraying a suspension of crushed hyphae thereof containing 50 crushed hyphae per microscopic field (magnification: X100). The suspension is prepared by culturing Elsinoe fawcetti on potato medium at a temperature of 25° C. for 30 days to form hyphae and suspending it in sterilized water.
(§2) After inoculation, the potted young oranges are allowed to stand at a temperature of 25° C. in a moist room for two days and then transferred to a greenhouse. Twenty-three days after inoculation, the leaf infested by citrus scab is examined, i.e., number of pathologic spots on a leaf is examined and the numbers of leaves infested by cirtrus scab are counted. Then, an infestation rate is calculated according to the following equation:
Infestation Rate=(Σnf/3N)×100
wherein n is the number of the infested leaves, f is an infestation index and N is the total number of the examined leaves. The infestation index is as follows.
For comparison, the above test is also carried out using a reference compound (benomyl) and plain water.

[1] = system: potted apples (variety: Star King); assay: Phytotoxicity of treating compound, Apple Scab test; settings: 500 ppm
[2] = system: potted young oranges (variety: Unshu); assay: Phytotoxicity of treating compound, Citrus Scab test; settings: 250 ppm
Method: as §1, §2

Diaporthe citri [3] = assay: Test of Residual Activity against Citrus Melanose; assay type: in vivo; settings: 1000 ppm, 23 mm/hr of rain; for Infested Leaves (%): 24 days after inoculation; for Infestation Rate: 24 days, (Σnf/4N)×100; for Number of Leaves Showing Each Infestation Index: 0: index 0 = 0-25% infested area; for Number of Leaves Showing Each Infestation Index: 1: index 1 = 26-50% infested area; for Number of Leaves Showing Each Infestation Index: 2: index 2 = 51-75% infested area; for Number of Leaves Showing Each Infestation Index: 3: index 3 = 76-90% infested area; for Number of Leaves Showing Each Infestation Index: 4: index 4 = 91-100% infested area
Alternaria kikuchiana [4] = assay: Pear Black Spot-controlling Test; settings: 500 ppm, six days after inoculation
Method: Pear Black Spot (Alternaria kikuchiana)-controlling Test
(§3) The resulting solution is sprayed on unfolded leaves of potted young pears (variety: Niju-seiki) in an amount corresponding to 600 l/10a per pot. After air-drying, the unfolded leaves are inoculated with Alternaria kikuchiana, by spraying a suspension of conidia thereof containing 30 conidia per microscopic field (magnification: X200).
(§4) After inoculation, the potted young pears are allowed to stand at a temperature of 27° C. in a moist room for one day and then transferred to a greenhouse. Six days after inoculation, the leaf area infested by pear black spot, i.e., the area of pathologic spots on a leaf is examined on 5 unfolded leaves per pot and an average infestation rate is then calculated.

Diaporthe citri [5] = assay: Citrus Melanose-controlling Test; assay type: in vivo; settings: 500 ppm; for Infested Leaves (%): 24 days after inoculation; for Infestation Rate / Number of Leaves Showing Infestation Index 0 / Number of Leaves Showing Infestation Index 1 / Number of Leaves Showing Infestation Index 2 / Number of Leaves Showing Infestation Index 3 / Number of Leaves Showing Infestation Index 4: 24 days; for Infestation Rate: (Σnf/4N)×100; for Number of Leaves Showing Infestation Index 0: index 0 = 0-25% infested area; for Number of Leaves Showing Infestation Index 1: index 1 = 26-50% infested area; for Number of Leaves Showing Infestation Index 2: index 2 = 51-75% infested area; for Number of Leaves Showing Infestation Index 3: index 3 = 76-90% infested area; for Number of Leaves Showing Infestation Index 4: index 4 = 91-100% infested area
Alternaria kikuchiana [6] = assay: Spore-germination Inhibiting Test; assay type: cell-based; settings: 10 ppm, 27° C., 20 hours
Method: Spore-germination Inhibiting Test for Alternaria kukuchiana An apricot medium is inoculated with Alternaria kikuchiana and incubated at a temperature of 27° C. for 7-10 days to form conidia on the medium. […] 0.02 Ml of the prepared spore suspension containing the compound according to the present invention is dropped on a slide glass and incubated at a temperature of 27° C. under moist conditions for 20 hours. Thereafter, whether or not the spores germinate is examined under a microscope and the spore-germination rate is then calculated.

[7] = system: potted young oranges (variety: Unshu); assay: Phytotoxicity of treating compound, residual activity test; settings: 1000 ppm, 23 mm/hr of rain
[8] = system: potted young pears (variety: Niju-seiki); assay: Phytotoxicity of treating compound, Pear Black Spot test; settings: 500 ppm, damaged area on leaves
Method: as §3, §4
*The phytotoxicity of the treating compound is evaluated according to the

[9] = system: potted young oranges (variety: Unshu); assay: Phytotoxicity of treating compound, Citrus Melanose test; settings: 500 ppm
crops and trees = settings: cited from earlier work
[10] = system: potted pears (variety: Niju-seiki); assay: Test of Phytotoxicity to Pears; assay type: in vivo, pear; settings: 75% Wettable Powders, two weeks
Description: Test of Phytotoxicity to Pears
After air-drying, the potted pears are allowed to stand in a greenhouse.

[11] = system: potted apples (variety: Star King); assay: Test of Phytotoxicity to Apples; settings: 75% Wettable Powders, dilution × 750, 600 l/10 a, two weeks
Method: The resulting solution of wettable powders is sprayed, in an amount corresponding to 600 l/10a per pot, on potted apples (variety: Star King) immediately after fresh leaves are unfolded. After air-drying, the potted apples are allowed to stand in a greenhouse. Two weeks after the spray treatment, the phytotoxicity, of the compound according to the present invention, to the potted apples is examined.
For comparison, the above test is also carried out using a reference compound (fluoroimide) and plain water.

Phytophthora infestans = assay type: in vivo; settings: 500 ppm
[12] = system: potted potatoes (variety: Chippewa); settings: 500 ppm
[13] = index 3 = 51-100% infested area

Compound	Infested Leaves (%) (Diaporthe citri [3])	Infestation Rate (Diaporthe citri [3])	Number of Leaves Showing Each Infestation Index: 0 (Diaporthe citri [3]) [leaves]	Number of Leaves Showing Each Infestation Index: 1 (Diaporthe citri [3]) [leaves]	Number of Leaves Showing Each Infestation Index: 2 (Diaporthe citri [3]) [leaves]	Number of Leaves Showing Each Infestation Index: 3 (Diaporthe citri [3]) [leaves]	Number of Leaves Showing Each Infestation Index: 4 (Diaporthe citri [3]) [leaves]	Average Infestation Rate (%) (Based on infested area) (Alternaria kikuchiana [4])	Infested Leaves (%) (Diaporthe citri [5])	Infestation Rate (Diaporthe citri [5])	Number of Leaves Showing Infestation Index 0 (Diaporthe citri [5]) [leaves]	Number of Leaves Showing Infestation Index 1 (Diaporthe citri [5]) [leaves]	Number of Leaves Showing Infestation Index 2 (Diaporthe citri [5]) [leaves]	Number of Leaves Showing Infestation Index 3 (Diaporthe citri [5]) [leaves]	Number of Leaves Showing Infestation Index 4 (Diaporthe citri [5]) [leaves]	Spore-germination Rate (%) (Alternaria kikuchiana [6])	Phytotoxicity of Treating Compound [7]	Phytotoxicity of Treating Compound [8]	Phytotoxicity of Treating Compound [9]	also measured
O=C1C=CC(=O)N1c1ccccc1 [N-phenylmaleimide]																				fungicidal effect (plant pathogens): has a fungicidal effect
CCCCNC(=O)n1c(NC(=O)OC)nc2ccccc21 [benomyl, Methyl-1-(butylcarbamoyl)-2-benzimidazolecarbamate]																				Infested Leaves (%) (Venturia inaequalis; seven days after inoculation): 0%; Infestation Rate (Venturia inaequalis; seven days, (Σnf/3N)×100): 0; Number of Leaves Showing Each Infestation Index: 0 (Venturia inaequalis; index 0 = 0% infested area): 25 leaves; Number of Leaves Showing Each Infestation Index: 1 (Venturia inaequalis; index 1 = 1-25% infested area): 0 leaves; Number of Leaves Showing Each Infestation Index: 2 (Venturia inaequalis; index 2 = 26-50% infested area): 0 leaves; Number of Leaves Showing Each Infestation Index: 3 (Venturia inaequalis; [13]): 0 leaves; Infested Leaves (%) (Elsinoe fawcetti; 23 days after inoculation): 0.6%; Infestation Rate (Elsinoe fawcetti; 23 days, (Σnf/3N)×100): 0.2; Number of Leaves Showing Each Infestation Index: 0 (Elsinoe fawcetti; index 0 = 0 spots per leaf): 328 leaves; Number of Leaves Showing Each Infestation Index: 1 (Elsinoe fawcetti; index 1 = 1-3 spots per leaf): 2 leaves; Number of Leaves Showing Each Infestation Index: 2 (Elsinoe fawcetti; index 2 = 4-10 spots per leaf): 0 leaves; Number of Leaves Showing Each Infestation Index: 3 (Elsinoe fawcetti; index 3 = ≥11 spots per leaf): 0 leaves; Phytotoxicity of Treating Compound [1]: - (0%); Phytotoxicity of Treating Compound [2]: - (0%)
O=C1C=CC(=O)N1c1cccc(OC(F)F)c1 [compound 5]	87	43	22	43	72	28	7	55	85	43	33	63	71	30	18	5	++ (26-50%)	+++ (≥51%)	++ (26-50%)	
O=C1C=CC(=O)N1c1ccc(OC(F)F)cc1 [compound 6]	91	34	15	86	45	13	0	36	98	43	257	110	103	44	0	4	+ (6-25%)	++ (26-50%)	+ (6-25%)	
COc1ccccc1N1C(=O)C(Cl)=C(Cl)C1=O [compound 7]	29	9	115	36	11	1	0	32	98	43	5	85	111	32	0	75	+ (6-25%)	++ (26-50%)	+ (6-25%)	
COc1cccc(N2C(=O)C(Cl)=C(Cl)C2=O)c1 [compound 8]	78	31	35	58	61	7	0	20	10	3.3	109	14	7	1	0	25	- (0%)	± (1-5%)	- (0%)	
COc1ccc(N2C(=O)C(Cl)=C(Cl)C2=O)cc1 [compound 9]	36	12	113	45	18	1	0	28	98	43	5	86	115	30	0	9	- (0%)	± (1-5%)	- (0%)	
O=C1C(Cl)=C(Cl)C(=O)N1c1ccc(F)cc1 [fluoroimide, N(p-Fluorophenyl)-2,3-dichloromaleimide]																				phytotoxicity (crops and trees; pear trees, strawberries, beans, and very many other crops): severe phytotoxicity; leaf-burn (crops and trees; wide variety of crops and trees): liable to cause leaf-burn; Phytotoxicity of Treating Compound ([10]; dilution × 500, 600 l/10 a): ++ (26-50%); Phytotoxicity of Treating Compound ([10]; dilution × 750, 600 l/10 a): + (6-25%); Phytotoxicity of Treating Compound [11]: + (6-25%)
ZnMnEthylenebisdithiocarbamate [mancozeb]	0	0	159	0	0	0	0		0	0	204	0	0	0	0		- (0%)		- (0%)	Infested Leaves (%) (Phytophthora infestans; six days after inoculation): 0%; Infestation Rate (Phytophthora infestans; six days, (Σnf/3N)×100): 0; Number of Leaves Showing Each Infestation Index: 0 (Phytophthora infestans; index 0 = 0% infested area): 20 leaves; Number of Leaves Showing Each Infestation Index: 1 (Phytophthora infestans; index 1 = 1-25% infested area): 0 leaves; Number of Leaves Showing Each Infestation Index: 2 (Phytophthora infestans; index 2 = 26-50% infested area): 0 leaves; Number of Leaves Showing Each Infestation Index: 3 (Phytophthora infestans; [13]): 0 leaves; Phytotoxicity of Treating Compound [12]: - (0%)
